Measured values from patent publication EP0449346B1, “4-Piperidinyl-ergoline derivatives” (PHARMACIA S.p.A., priority 1990, dated 1991).

System: rats with unilateral 6-hydroxy dopamine-induced lesion of the dopaminergic nigrostriatal patway
Assay: Turning behaviour in rats: induction of controlateral turnings after a single treatment
Assay type: in vivo
Text: More in particular, the ergoline derivatives according to the invention are active as antiparkinson agents, owing to their dopaminergic activity. The dopaminergic activity is indicated e.g. by an induction of controlateral turnings in rats with unilateral 6-hydroxy dopamine-induced lesion of the dopaminergic nigrostriatal patway. [According to the principles of N.Ungerstedt et al., Brain Research 24,485 (1970)].

[1] = single treatment, 0.5 mg/Kg s.c., in 6 hours
[2] = single treatment, 0.5 mg/Kg s.c., turning rats / treated rats

CN1C[C@H](CC2CC(=O)NC(=O)C2)C=C2c3cccc4[nH]cc(c34)C[C@H]21 [Example 1, 4-[(6-Methylergolen-Δ9,10-8β-yl)methyl]-piperidin-2,6-dione]
Number of controlateral turns (X) in 6 hours [1]: 1540 | Turning rats Treated rats [2]: 4/4

CN1C(=O)CC(C[C@@H]2C=C3c4cccc5[nH]cc(c45)C[C@H]3N(C)C2)CC1=O [Example 5, 1-Methyl-4-[(6-methylergolen-Δ9,10-8β-yl)methyl]-piperidin-2,6-dione]
Number of controlateral turns (X) in 6 hours [1]: 1830 | Turning rats Treated rats [2]: 5/5

CC(C)C[C@H]1C(=O)N2CCC[C@H]2[C@]2(O)O[C@](NC(=O)[C@@H]3C=C4c5cccc6[nH]c(Br)c(c56)C[C@H]4N(C)C3)(C(C)C)C(=O)N12 [Bromocriptine, bromocriptine, reference compound]
Number of controlateral turns (X) in 6 hours (rat, in vivo, sc, 1 mg/kg): 1920 | Turning rats Treated rats (rat, in vivo, sc, 1 mg/kg): 6/9
